Experimental data reported in patent publication US6737383B1, “Herbicidal oxadiazolidines” (priority 1999, dated 2004).

Columns and labels:
bamyardgrass = test: Test B flood test barnyardgrass; assay type: in vivo, Echinochloa crus-galli
Procedure, shortened: (§1)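 Read-out is a visual response score from 0 (no effect) to 10 (complete control), assigned by comparison with untreated controls. Treatment was applied at the 2-leaf stage, and plants stayed in the greenhouse for twelve to sixteen days before scoring.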

crabgrass = test: Test B pre/postemergence crabgrass; assay type: in vivo, Digitaria sanguinalis
Procedure, shortened: (§2)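 Test chemicals in a non-phytotoxic solvent mixture with surfactant were sprayed preemergence onto planted seeds and postemergence onto plants 2 to 18 cm tall (1- to 4-leaf stage). After twelve to sixteen days in a greenhouse, injury was visually rated against untreated controls from 0 (no effect) to 10 (complete control).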

duck salad = test: Test B flood test duck salad; assay type: in vivo, Heteranthera limosa
Procedure, shortened: as §1

purple nutsedge = test: Test B pre/postemergence purple nutsedge; assay type: in vivo, Cyperus rotundus
Procedure, shortened: as §2

[1] = Postemergence, Rate 62 g/ha, scale 0 to 10, 0 is no effect, 10 is complete control
[2] = Rate 125 g/ha, Postemergence section (flood test species), scale 0 to 10, 0 no effect, 10 complete control
[3] = Rate 500 g/ha, listed under Postemergence (flood test species), scale 0 to 10, 0 no effect, 10 complete control
[4] = flood test, listed under Postemergence, Rate 250 g/ha, scale 0 to 10, 0 no effect, 10 complete control
[5] = Postemergence, Rate 125 g/ha, scale of 0 to 10 where 0 is no effect and 10 is complete control
[6] = Postemergence, Rate 250 g/ha, scale 0 to 10, 0 no effect, 10 complete control
[7] = Preemergence, Rate 62 g/ha, scale 0 to 10 (0 no effect, 10 complete control)
[8] = Preemergence, Rate 125 g/ha, scale 0 to 10 (0 no effect, 10 complete control)
[9] = Preemergence, Rate 250 g/ha, scale of 0 to 10 where 0 is no effect and 10 is complete control
[10] = Rate 62 g/ha, Postemergence, scale of 0 to 10 where 0 is no effect and 10 is complete control
[11] = Rate 500 g/ha, Postemergence, scale 0 to 10, 0 no effect, 10 complete control
[12] = Postemergence (flood test species), Rate 125 g/ha, scale of 0 to 10 where 0 is no effect and 10 is complete control
[13] = Rate 62 g/ha, Postemergence section, flood test species, scale of 0 to 10 where 0 is no effect and 10 is complete control
[14] = Preemergence, Rate 500 g/ha, scale 0 to 10 (0 no effect, 10 complete control)
[15] = Rate 250 g/ha, Postemergence (flood test), scale 0 to 10, 0 is no effect, 10 is complete control
[16] = Rate 250 g/ha, headed Pre-emergence (flood test species), scale 0 to 10 (0 no effect, 10 complete control)
[17] = Rate 500 g/ha, headed Pre-emergence (flood test species), scale 0 to 10 (0 no effect, 10 complete control)
[18] = Rate 1000 g/ha, Pre-emergence (as headed), scale 0 to 10
[19] = Preemergence, Rate 125 g/ha, 0 is no effect, 10 is complete control
[20] = Preemergence, Rate 250 g/ha, scale 0 to 10, 0 is no effect, 10 is complete control
[21] = Rate 250 g/ha, Postemergence, scale 0 to 10, 0 is no effect, 10 is complete control
[22] = Rate 500 g/ha, Postemergence, scale 0 to 10

## CCc1noc(CC)c1-n1c(=O)on(C(=O)N(c2ccc(F)cc2)C(C)C)c1=O [Compound 102]
bamyardgrass; [1]
  Barnyardgrass plant response rating: 0
bamyardgrass; [2]
  Barnyardgrass plant response rating: 0
bamyardgrass; [3]
  Barnyardgrass plant response rating: 0
bamyardgrass; [4]
  Barnyardgrass plant response rating: 0
crabgrass; [5]
  Crabgrass plant response rating: 0
crabgrass; [6]
  Crabgrass plant response rating: 0
crabgrass; [7]
  Crabgrass plant response rating: 0
crabgrass; [8]
  Plant response rating, Crabgrass: 0
crabgrass; [9]
  Plant response rating, Crabgrass: 0
crabgrass; [10]
  Crabgrass plant response rating: 0
crabgrass; [11]
  Crabgrass plant response rating: 5
Duck salad; [12]
  Ducksalad plant response rating: 0
Duck salad; [13]
  Ducksalad plant response rating: 0
Duck salad; [3]
  Ducksalad plant response rating: 0
Duck salad; [4]
  Ducksalad plant response rating: 0
Purple nutsedge; [5]
  Nutsedge plant response rating: 0
Purple nutsedge; [6]
  Nutsedge plant response rating: 0
Purple nutsedge; [7]
  Nutsedge plant response rating: 0
Purple nutsedge; [8]
  Plant response rating, Nutsedge: 0
Purple nutsedge; [9]
  Plant response rating, Nutsedge: 0
Purple nutsedge; [10]
  Nutsedge plant response rating: 0
Purple nutsedge; [11]
  Nutsedge plant response rating: 0

## Cc1nn(C)c(C)c1-n1c(=O)on(C(=O)N(c2ccccc2)C(C)C)c1=O [Compound 120]
bamyardgrass; [1]
  Barnyardgrass plant response rating: 0
bamyardgrass; [2]
  Barnyardgrass plant response rating: 0
bamyardgrass; [3]
  Barnyardgrass plant response rating: 0
bamyardgrass; [4]
  Barnyardgrass plant response rating: 0
crabgrass; [5]
  Crabgrass plant response rating: 7
crabgrass; [6]
  Crabgrass plant response rating: 9
crabgrass; [7]
  Crabgrass plant response rating: 6
crabgrass; [8]
  Plant response rating, Crabgrass: 6
crabgrass; [9]
  Plant response rating, Crabgrass: 9
crabgrass; [14]
  Crabgrass plant response rating: 9
crabgrass; [10]
  Crabgrass plant response rating: 5
crabgrass; [11]
  Crabgrass plant response rating: 9
Duck salad; [12]
  Ducksalad plant response rating: 0
Duck salad; [13]
  Ducksalad plant response rating: 0
Duck salad; [3]
  Ducksalad plant response rating: 0
Duck salad; [4]
  Ducksalad plant response rating: 0
Purple nutsedge; [5]
  Nutsedge plant response rating: 0
Purple nutsedge; [6]
  Nutsedge plant response rating: 0
Purple nutsedge; [7]
  Nutsedge plant response rating: 0
Purple nutsedge; [8]
  Plant response rating, Nutsedge: 0
Purple nutsedge; [9]
  Plant response rating, Nutsedge: 0
Purple nutsedge; [14]
  Nutsedge plant response rating: 0
Purple nutsedge; [10]
  Nutsedge plant response rating: 0

## Cc1cnn(C)c1-n1c(=O)on(C(=O)N(c2ccc(F)cc2)C(C)C)c1=O [Compound 125]
bamyardgrass; [12]
  Barnyardgrass plant response rating: 0
bamyardgrass; [1]
  Barnyardgrass plant response rating: 0
bamyardgrass; [15]
  Plant response rating, Barnyardgrass: 0
bamyardgrass; [16]
  Barnyardgrass plant response rating: 0
bamyardgrass; [17]
  Plant response rating, Barnyardgrass: 0
bamyardgrass; [3]
  Barnyardgrass plant response rating: 0
bamyardgrass; [18]
  Barnyardgrass plant response rating: 0
bamyardgrass; Rate 2000 g/ha, Pre-emergence (as headed), scale 0 to 10, 0 no effect, 10 complete control
  Barnyardgrass plant response rating: 0
crabgrass; [5]
  Crabgrass plant response rating: 0
crabgrass; [7]
  Crabgrass plant response rating: 0
crabgrass; [19]
  Crabgrass plant response rating (0 to 10 scale): 0
crabgrass; [20]
  Crabgrass plant response rating: 0
crabgrass; [14]
  Crabgrass plant response rating: 0
crabgrass; [10]
  Crabgrass plant response rating: 0
crabgrass; [21]
  Plant response rating, Crabgrass: 0
crabgrass; [22]
  Crabgrass plant response rating: 0
Duck salad; [12]
  Ducksalad plant response rating: 0
Duck salad; [13]
  Ducksalad plant response rating: 0
Duck salad; [15]
  Plant response rating, Ducksalad: 0
Duck salad; [16]
  Ducksalad plant response rating: 0
Duck salad; [17]
  Plant response rating, Ducksalad: 0
Duck salad; Rate 500 g/ha, listed under Postemergence (flood test species), scale 0 to 10
  Ducksalad plant response rating: 0
Duck salad; [18]
  Ducksalad plant response rating: 0
Duck salad; Rate 2000 g/ha, Pre-emergence (as headed), scale 0 to 10
  Ducksalad plant response rating: 0
Purple nutsedge; [5]
  Nutsedge plant response rating: 0
Purple nutsedge; [7]
  Nutsedge plant response rating: 0
Purple nutsedge; [19]
  Nutsedge plant response rating (0 to 10 scale): 0
Purple nutsedge; [20]
  Nutsedge plant response rating: 0
Purple nutsedge; [14]
  Nutsedge plant response rating: 0
Purple nutsedge; [10]
  Nutsedge plant response rating: 0
Purple nutsedge; [21]
  Plant response rating, Nutsedge: 0
Purple nutsedge; [22]
  Nutsedge plant response rating: 0
